Experiment [1] concerns the target T1, Alpha-1D adrenergic receptor (Homo sapiens, UniProt P25100).
T1 sequence (P25100 whole entry): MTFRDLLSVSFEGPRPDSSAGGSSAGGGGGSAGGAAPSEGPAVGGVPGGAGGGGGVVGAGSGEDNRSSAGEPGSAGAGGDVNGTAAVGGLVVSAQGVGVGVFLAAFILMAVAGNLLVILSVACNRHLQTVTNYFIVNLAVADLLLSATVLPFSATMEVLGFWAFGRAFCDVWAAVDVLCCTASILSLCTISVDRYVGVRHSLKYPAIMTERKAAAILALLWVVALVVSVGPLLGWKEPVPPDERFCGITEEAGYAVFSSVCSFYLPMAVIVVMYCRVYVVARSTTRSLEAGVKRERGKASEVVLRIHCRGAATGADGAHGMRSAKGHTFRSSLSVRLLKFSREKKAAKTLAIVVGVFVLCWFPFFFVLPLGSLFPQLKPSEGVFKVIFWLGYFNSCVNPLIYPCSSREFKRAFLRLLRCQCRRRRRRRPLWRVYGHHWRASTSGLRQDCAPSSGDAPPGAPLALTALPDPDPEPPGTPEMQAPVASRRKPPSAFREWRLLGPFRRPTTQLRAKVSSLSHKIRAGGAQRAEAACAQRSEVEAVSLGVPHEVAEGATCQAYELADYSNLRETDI
In kind it is cell membranes, HEK293, Membrane. The settings on record: for Ki: read-out: Ki.

In experiment [2] the target is T2, Alpha-2A adrenergic receptor (Homo sapiens, UniProt P08913).
T2 sequence (P08913 whole entry): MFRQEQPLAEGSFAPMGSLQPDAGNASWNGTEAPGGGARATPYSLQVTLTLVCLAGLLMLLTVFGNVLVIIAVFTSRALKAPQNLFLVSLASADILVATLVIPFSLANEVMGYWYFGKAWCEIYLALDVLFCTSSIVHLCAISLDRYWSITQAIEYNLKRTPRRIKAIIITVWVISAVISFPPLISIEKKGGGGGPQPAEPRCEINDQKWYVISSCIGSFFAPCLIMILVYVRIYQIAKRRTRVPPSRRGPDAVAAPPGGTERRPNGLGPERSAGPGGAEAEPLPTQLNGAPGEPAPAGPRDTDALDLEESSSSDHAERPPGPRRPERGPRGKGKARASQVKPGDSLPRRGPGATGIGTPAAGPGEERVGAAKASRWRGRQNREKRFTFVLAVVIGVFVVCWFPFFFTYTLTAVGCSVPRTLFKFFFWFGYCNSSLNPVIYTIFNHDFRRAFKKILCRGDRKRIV
In kind it is cell membranes, Sf9, Membrane. The note with it: for Ki: read-out: Ki.

The next experiment concerns the target T3, Calcitonin receptor (Homo sapiens, UniProt P30988).
T3 sequence (P30988 whole entry): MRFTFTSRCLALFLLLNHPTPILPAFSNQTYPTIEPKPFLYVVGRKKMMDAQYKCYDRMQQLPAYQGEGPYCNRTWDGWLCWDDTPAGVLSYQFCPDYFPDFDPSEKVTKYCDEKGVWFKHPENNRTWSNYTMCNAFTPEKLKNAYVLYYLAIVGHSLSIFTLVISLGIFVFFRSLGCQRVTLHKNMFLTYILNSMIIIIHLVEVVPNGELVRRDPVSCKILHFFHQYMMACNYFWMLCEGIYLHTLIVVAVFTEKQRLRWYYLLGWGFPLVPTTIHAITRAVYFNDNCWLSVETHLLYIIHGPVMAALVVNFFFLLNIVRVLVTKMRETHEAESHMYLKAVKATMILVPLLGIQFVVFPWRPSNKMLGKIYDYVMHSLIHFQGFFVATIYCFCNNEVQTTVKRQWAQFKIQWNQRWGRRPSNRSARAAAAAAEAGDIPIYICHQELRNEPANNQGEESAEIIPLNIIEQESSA
It is filed as cell membranes, Membrane. The settings on record: t47d.

Experiment [3] concerns the target 5-hydroxytryptamine receptor 6 (Homo sapiens, UniProt P50406). It is filed as cell membranes, HeLa, Membrane. The settings on record: for Ki: read-out: Ki.
Experiment [4] has as its target C-C chemokine receptor type 5 (Homo sapiens, UniProt P51681). It is filed as cell membranes, Membrane. The settings on record: hek293.
The target in another experiment is Nitric oxide synthase 1 (Rattus norvegicus, UniProt P29476). It is filed as tissue-based, Cerebellum.
Nitric oxide synthase 1, sequence (P29476 whole entry): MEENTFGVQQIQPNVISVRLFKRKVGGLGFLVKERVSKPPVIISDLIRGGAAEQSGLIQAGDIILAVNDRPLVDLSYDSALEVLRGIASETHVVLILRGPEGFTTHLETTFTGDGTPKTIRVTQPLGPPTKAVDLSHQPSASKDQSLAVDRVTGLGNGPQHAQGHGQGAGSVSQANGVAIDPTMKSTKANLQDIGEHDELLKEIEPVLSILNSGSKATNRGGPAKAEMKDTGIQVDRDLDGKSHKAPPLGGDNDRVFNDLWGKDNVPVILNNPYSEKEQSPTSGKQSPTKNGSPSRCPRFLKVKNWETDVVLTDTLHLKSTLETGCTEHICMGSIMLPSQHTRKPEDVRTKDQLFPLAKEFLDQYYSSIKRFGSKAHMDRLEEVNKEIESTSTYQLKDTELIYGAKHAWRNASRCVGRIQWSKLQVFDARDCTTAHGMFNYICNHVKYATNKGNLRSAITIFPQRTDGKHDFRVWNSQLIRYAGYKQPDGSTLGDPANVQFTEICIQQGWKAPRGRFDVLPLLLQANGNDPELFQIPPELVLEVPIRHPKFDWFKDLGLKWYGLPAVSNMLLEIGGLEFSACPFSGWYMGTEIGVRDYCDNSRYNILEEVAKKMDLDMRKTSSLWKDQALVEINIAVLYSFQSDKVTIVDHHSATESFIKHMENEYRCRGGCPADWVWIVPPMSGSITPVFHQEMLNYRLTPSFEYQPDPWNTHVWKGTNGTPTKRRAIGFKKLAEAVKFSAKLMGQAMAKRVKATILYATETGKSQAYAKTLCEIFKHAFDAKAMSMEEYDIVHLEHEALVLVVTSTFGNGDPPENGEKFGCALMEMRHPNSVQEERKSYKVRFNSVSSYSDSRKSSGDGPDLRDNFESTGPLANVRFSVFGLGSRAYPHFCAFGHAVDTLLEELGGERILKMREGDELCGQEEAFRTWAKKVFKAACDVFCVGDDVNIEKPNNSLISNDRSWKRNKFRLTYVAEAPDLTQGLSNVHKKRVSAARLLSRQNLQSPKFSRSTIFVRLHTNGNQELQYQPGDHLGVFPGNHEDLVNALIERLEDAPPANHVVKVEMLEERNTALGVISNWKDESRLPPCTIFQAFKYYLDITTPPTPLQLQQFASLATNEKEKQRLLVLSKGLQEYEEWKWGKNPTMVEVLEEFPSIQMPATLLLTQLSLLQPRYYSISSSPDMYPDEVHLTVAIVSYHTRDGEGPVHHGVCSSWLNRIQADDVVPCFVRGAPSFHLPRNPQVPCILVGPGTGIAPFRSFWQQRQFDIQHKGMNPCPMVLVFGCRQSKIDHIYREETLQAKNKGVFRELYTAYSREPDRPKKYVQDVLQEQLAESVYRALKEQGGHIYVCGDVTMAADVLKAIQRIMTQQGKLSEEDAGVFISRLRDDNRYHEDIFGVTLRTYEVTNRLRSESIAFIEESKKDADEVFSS
The target of experiment [5] is Matrix metalloproteinase-9 (Homo sapiens, UniProt P14780). In kind it is cell-based.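 Note: inhibition of isolated MMP-9 enzyme activity toward a synthetic peptide substrate, from the DrugMatrix protease screening panel.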
Matrix metalloproteinase-9, sequence (P14780 whole entry): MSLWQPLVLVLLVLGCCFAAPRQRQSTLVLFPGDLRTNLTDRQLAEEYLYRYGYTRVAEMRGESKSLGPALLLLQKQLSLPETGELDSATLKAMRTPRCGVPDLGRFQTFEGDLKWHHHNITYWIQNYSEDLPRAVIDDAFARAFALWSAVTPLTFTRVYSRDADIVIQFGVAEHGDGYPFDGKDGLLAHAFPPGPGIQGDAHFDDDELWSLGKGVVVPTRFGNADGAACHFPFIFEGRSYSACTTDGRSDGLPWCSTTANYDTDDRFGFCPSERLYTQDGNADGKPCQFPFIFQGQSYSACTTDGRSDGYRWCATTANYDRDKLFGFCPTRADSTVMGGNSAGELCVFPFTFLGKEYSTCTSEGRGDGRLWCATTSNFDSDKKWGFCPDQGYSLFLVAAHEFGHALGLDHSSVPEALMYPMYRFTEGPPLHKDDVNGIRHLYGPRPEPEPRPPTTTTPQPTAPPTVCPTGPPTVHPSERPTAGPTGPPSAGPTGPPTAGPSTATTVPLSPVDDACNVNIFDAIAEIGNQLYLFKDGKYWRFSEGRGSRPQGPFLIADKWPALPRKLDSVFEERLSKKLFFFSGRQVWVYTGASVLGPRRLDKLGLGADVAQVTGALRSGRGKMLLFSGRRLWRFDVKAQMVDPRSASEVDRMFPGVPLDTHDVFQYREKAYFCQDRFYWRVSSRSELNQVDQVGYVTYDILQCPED

The IC50 is the concentration needed to halve the response being measured. The Ki is the equilibrium dissociation constant of an inhibitor or competing ligand from its target.
Note: in other assays of this panel Not Active means under 50% inhibition at 10 µM.

C-C chemokine receptor type 5, sequence (P51681 whole entry): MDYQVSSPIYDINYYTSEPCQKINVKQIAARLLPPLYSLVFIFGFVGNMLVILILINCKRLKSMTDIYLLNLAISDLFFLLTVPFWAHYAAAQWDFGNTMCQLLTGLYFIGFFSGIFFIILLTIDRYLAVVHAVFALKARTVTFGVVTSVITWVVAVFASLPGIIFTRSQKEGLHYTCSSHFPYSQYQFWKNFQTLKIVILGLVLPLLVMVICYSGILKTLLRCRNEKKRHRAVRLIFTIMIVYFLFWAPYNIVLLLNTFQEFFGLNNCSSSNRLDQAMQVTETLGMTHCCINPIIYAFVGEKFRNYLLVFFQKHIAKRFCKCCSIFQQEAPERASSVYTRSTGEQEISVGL
5-hydroxytryptamine receptor 6, sequence (P50406 whole entry): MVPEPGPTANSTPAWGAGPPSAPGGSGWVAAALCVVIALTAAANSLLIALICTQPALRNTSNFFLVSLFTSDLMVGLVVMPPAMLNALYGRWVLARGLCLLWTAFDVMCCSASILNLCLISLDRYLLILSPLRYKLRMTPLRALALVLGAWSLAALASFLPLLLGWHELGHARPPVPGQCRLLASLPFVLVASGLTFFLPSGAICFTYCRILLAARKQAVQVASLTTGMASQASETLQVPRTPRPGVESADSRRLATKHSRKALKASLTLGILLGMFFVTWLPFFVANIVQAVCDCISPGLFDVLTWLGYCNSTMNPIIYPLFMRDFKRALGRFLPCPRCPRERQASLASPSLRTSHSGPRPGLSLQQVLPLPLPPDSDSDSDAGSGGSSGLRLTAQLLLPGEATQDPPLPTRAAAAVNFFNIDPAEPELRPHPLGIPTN

Regarding `CCCCC(=O)N(Cc1ccc(-c2ccccc2-c2nnn[nH]2)cc1)[C@H](C(=O)O)C(C)C`, the IC50 result (in experiment [1] (hek293); in experiment [2] (sf9); at Calcitonin receptor; in experiment [3] (hela); in experiment [4]; on Nitric oxide synthase 1) was “Not Active” each time. For the same compound, in experiment [5], the IC50 entry is listed as “Not Active”.

Consider `O=C(O)COc1ccc(C(=O)c2cccs2)c(Cl)c1Cl`, for which the half-inhibitory concentration (IC50) entry (in experiment [1] (hek293); in experiment [2] (sf9); at Calcitonin receptor; in experiment [3] (hela); in experiment [4]; against Nitric oxide synthase 1) was “Not Active” in each case. The IC50 entry in experiment [5] is “Not Active”.

In the case of `CN1[C@@H]2CC[C@H]1C[C@@H](OC(c1ccccc1)c1ccccc1)C2` [BENZTROPINE], the IC50 in experiment [1] (read-out: IC50) was 52 nM; at Calcitonin receptor it was “Not Active”; in experiment [3] (read-out: IC50) it was 2790 nM; in experiment [4] it was “Not Active”; on Nitric oxide synthase 1 it was “Not Active”; in experiment [5] it was “Not Active”. Besides, the figures for the Ki in experiment [1] and in experiment [3] were 26 nM and 1290 nM, respectively.

For the compound `C[C@@](Cc1ccc(O)c(O)c1)(NN)C(=O)O.O` [CARBIDOPA], the IC50 entry (in experiment [1] (hek293); in experiment [2] (sf9); on Calcitonin receptor; in experiment [3] (hela); in experiment [4]; against Nitric oxide synthase 1) was “Not Active” each time. Further, the IC50 entry in experiment [5] is given as “Not Active”.

With `CN1CCN(C2=Nc3cc(Cl)ccc3Nc3ccccc32)CC1` [CLOZAPINE], the IC50 entry (at Calcitonin receptor; in experiment [4]; against Nitric oxide synthase 1; in experiment [5]) was “Not Active” throughout.

Take `CC(C)NC[C@@H](O)COc1cccc2ccccc12` [DEXPROPRANOLOL]: the IC50 result (in experiment [1] (hek293); in experiment [2] (sf9); at Calcitonin receptor; in experiment [3] (hela); in experiment [4]; at Nitric oxide synthase 1) was “Not Active” each time. Besides, the IC50 result in experiment [5] is listed as “Not Active”.

Regarding `CC(C)NC[C@H](O)COc1cccc2ccccc12` [LEVOPROPRANOLOL], the IC50 result was “Not Active” in experiment [1] (hek293); “Not Active” in experiment [2] (sf9); “Not Active” on Calcitonin receptor; 998 nM in experiment [3] (read-out: IC50); “Not Active” in experiment [4]; “Not Active” on Nitric oxide synthase 1. For the same compound, in experiment [5], the IC50 result is recorded as “Not Active”. Besides, the Ki in experiment [3] worked out at 463 nM.

On to `O=C(O)CCCCC1CCSS1` (stereo not drawn) [LIPOIC ACID, ALPHA], for which the IC50 result (in experiment [1] (hek293); in experiment [2] (sf9); at Calcitonin receptor; in experiment [3] (hela); in experiment [4]; against Nitric oxide synthase 1) was “Not Active” throughout. Besides, the IC50 result in experiment [5] is on record as “Not Active”.

Consider `CN(C)C(=O)C(CCN1CCC(O)(c2ccc(Cl)cc2)CC1)(c1ccccc1)c1ccccc1` [LOPERAMIDE], for which the IC50 entry (in experiment [1] (hek293); in experiment [2] (sf9); at Calcitonin receptor; in experiment [3] (hela); in experiment [4]; at Nitric oxide synthase 1) was “Not Active” each time. For the same compound, in experiment [5], the IC50 result was “Not Active”.

In the case of `Clc1ccc(COC(Cn2ccnc2)c2ccc(Cl)cc2Cl)c(Cl)c1` (stereo not drawn) [MICONAZOLE], the IC50 is 3050 nM in experiment [1] (read-out: IC50); 3970 nM in experiment [2] (read-out: IC50); “Not Active” at Calcitonin receptor; 10900 nM in experiment [3] (read-out: IC50); “Not Active” in experiment [4]; “Not Active” on Nitric oxide synthase 1. The IC50 entry in experiment [5] is “Not Active”. Further, the Ki stood at 1500 nM in experiment [1], 1490 nM in experiment [2] and 5060 nM in experiment [3].

`Oc1ccc2c3c1O[C@H]1[C@@H](O)CC[C@@]4(O)[C@@H](C2)N(CC2CCC2)CC[C@]314` [NALBUPHINE]: the IC50 entry (in experiment [1] (hek293); in experiment [2] (sf9); at Calcitonin receptor; in experiment [3] (hela); in experiment [4]; against Nitric oxide synthase 1) was “Not Active” each time. Also, the IC50 result in experiment [5] is “Not Active”.

As for `C[C@]12C=CC(=O)C=C1CC[C@@H]1[C@@H]2C(=O)C[C@@]2(C)[C@H]1CC[C@]2(O)C(=O)CO` [PREDNISONE], the IC50 result (in experiment [1] (hek293); in experiment [2] (sf9); on Calcitonin receptor; in experiment [3] (hela); in experiment [4]; on Nitric oxide synthase 1) was “Not Active” in each case. Moreover, the IC50 result in experiment [5] is “Not Active”.

In the case of `OCCOCCN1CCN(C2=Nc3ccccc3Sc3ccccc32)CC1` [QUETIAPINE], the IC50 was 96.6 nM in experiment [1] (read-out: IC50); “Not Active” at Calcitonin receptor; “Not Active” in experiment [3] (hela); “Not Active” in experiment [4]; “Not Active” against Nitric oxide synthase 1; “Not Active” in experiment [5]. The Ki in experiment [1] was 47.5 nM.

In the case of `COC(=O)[C@H]1[C@H]2C[C@@H]3c4[nH]c5cc(OC)ccc5c4CCN3C[C@H]2C[C@@H](OC(=O)c2cc(OC)c(OC)c(OC)c2)[C@@H]1OC` [RESERPINE], the IC50 result (in experiment [1] (hek293); in experiment [2] (sf9); on Calcitonin receptor; in experiment [3] (hela); in experiment [4]; against Nitric oxide synthase 1) was “Not Active” throughout. The IC50 entry in experiment [5] is “Not Active”.

As for `O=C(O)c1ccccc1O` [SALICYLIC ACID], the IC50 entry (in experiment [1] (hek293); in experiment [2] (sf9); on Calcitonin receptor; in experiment [3] (hela); in experiment [4]; against Nitric oxide synthase 1) was “Not Active” throughout. Moreover, in experiment [5], the IC50 entry is recorded as “Not Active”.

For `C[S+]([O-])c1ccc(-c2nc(-c3ccncc3)c(-c3ccc(F)cc3)[nH]2)cc1` (stereo not drawn) [SB-203580], the IC50 entry (in experiment [1] (hek293); in experiment [2] (sf9); on Calcitonin receptor; in experiment [3] (hela); in experiment [4]; at Nitric oxide synthase 1) was “Not Active” throughout. Moreover, the IC50 entry in experiment [5] is recorded as “Not Active”.

With `CC1CCC(NC(=O)N(CCCl)N=O)CC1` (stereo not drawn) [SEMUSTINE], the IC50 result was “Not Active” in experiment [1] (hek293); 4810 nM in experiment [2] (read-out: IC50); “Not Active” on Calcitonin receptor; “Not Active” in experiment [3] (hela); “Not Active” in experiment [4]; “Not Active” on Nitric oxide synthase 1. The IC50 result in experiment [5] is recorded as “Not Active”. In addition, the Ki in experiment [2] was 1800 nM.

Turning to `O=C1C[C@@H]2OCC=C3CN4CC[C@]56c7ccccc7N1[C@H]5[C@H]2[C@H]3C[C@H]46` [STRYCHNINE], the IC50 result (in experiment [1] (hek293); in experiment [2] (sf9); on Calcitonin receptor; in experiment [3] (hela); in experiment [4]; on Nitric oxide synthase 1) was “Not Active” each time. Also, the IC50 entry in experiment [5] is on record as “Not Active”.

For `C[N+](C)(C)CCOC(=O)CCC(=O)OCC[N+](C)(C)C.[Cl-].[Cl-]` [SUCCINYLCHOLINE CHLORIDE], the IC50 entry (in experiment [1] (hek293); in experiment [2] (sf9); at Calcitonin receptor; in experiment [3] (hela); in experiment [4]; on Nitric oxide synthase 1) was “Not Active” in each case. Besides, the IC50 result in experiment [5] is recorded as “Not Active”.

For the compound `Nc1ccc(S(=O)(=O)NC(=O)c2ccccc2)cc1` [SULFABENZAMIDE], the IC50 entry (in experiment [1] (hek293); in experiment [2] (sf9); at Calcitonin receptor; in experiment [3] (hela); in experiment [4]; against Nitric oxide synthase 1) was “Not Active” throughout. The concentration for half-maximal inhibition (IC50) result in experiment [5] is given as “Not Active”.

(Values after ChEMBL document CHEMBL1909046, “DrugMatrix in vitro pharmacology data”.)
